The structures appear in SMILES notation.

Assay [1] deals with KM12-AR (compound A resistant KM12 cell lines). The assay can be described thus: Growth inhibition test in compound A resistant KM12 cell lines (KM12-AR). The format is cell-based, human. The conditions noted are these: KM12-AR cells; single treatment. Here is the method:
Pharmacological Experiment Example 5: Growth Inhibition Test in Compound a Resistant KM12 Cell Lines
Using KM12 as TPM3-NTRK1-positive human colon cancer cell lines, a strain resistant to the compound A was established. A DMEM (Life technologies, product number: 11965) containing a 10 vol % FBS and 1 vol % penicillin-streptomycin liquid was prepared as a culture medium. The thawed KM12 was suspended in the culture medium. At room temperature, 180 g was centrifuged for 3 minutes, the supernatant was removed by suction, and the cell sediment was then re-suspended in the culture medium, and a total amount of 50 mL was inoculated in a 225 cm^2 flask (Asahi Glass Co., Ltd.). […]
Then, every two or three days, the culture medium was replaced or subcultured. […] The cell sediment was suspended in the DMEM culture medium, a part of the cell suspension was then collected, and the number of viable cells was counted. […]
Using KM12-AR, an effect when the compound A and trametinib, selumetinib, palbociclib, gefitinib, erlotinib, afatinib, lapatinib, neratinib or canertinib were combined was evaluated. […]
On the day when the compound was treated, 10 mM of each compound (DMSO solution) was serially diluted with DMSO to prepare a diluted solution. […] After the compound was added, the growth inhibition rate was calculated in the same method as in Pharmacological Experiment Example 3.

Assay [2] concerns ETV6-NTRK3 positive human leukemia cell lines IMS-M2. As to the kind of experiment: Growth inhibition experiment in ETV6-NTRK3 positive IMS-M2 cell lines (combination index). The format is cell-based. The conditions noted are these: named kinase inhibitor used in combination with compound A; IMS-M2 cells, 72 hours; CI<1 synergistic. On the procedure: Cells were subcultured using an RPMI culture medium containing a 10 vol % FBS and 1 vol % penicillin-streptomycin liquid before they underwent the experiment.
On the day when the compound was treated, cells were collected from a culture flask into a centrifuge tube. At room temperature, 300 g of cells were centrifuged for 3 minutes, and the cell sediment was then suspended in the RPMI culture medium.
The diluted solution of each compound and DMSO were diluted 100-fold in a culture medium to prepare a 10-fold concentration of the treatment solution of each compound and the medium solution.

Assay [3] deals with TPM3-NTRK1-positive human colon cancer cell lines KM12. As to the kind of experiment: Growth inhibition test in TPM3-NTRK1 positive KM12 cell lines (CellTiter-Glo, combination index). The assay is classed as cell-based. The conditions noted are these: named kinase inhibitor used in combination with compound A; KM12 cells, 72 hours; CI<1 synergistic. Here is the method: Pharmacological Experiment Example 3: Growth Inhibition Test in TPM3-NTRK1 Positive KM12 Cell Lines
Using KM12 as TPM3-NTRK1-positive human colon cancer cell lines, an effect when 1-{2-[4-(2-amino-5-chloro-3-pyridinyl)phenoxy]-5-pyrimidinyl}-3-[2-(methylsulfonyl)-5-(trifluoromethyl)phenyl]urea (hereinafter sometimes referred to as a compound A) and trametinib, selumetinib, palbociclib, afatinib or erlotinib were combined was evaluated. Cells were subcultured using a DMEM containing a 10 vol % inactivated fetal bovine serum (FBS) and 1 vol % penicillin-streptomycin liquid as a culture medium before they underwent the experiment.
One day before the compound was treated, cells were floated using 0.25% Trypsin-EDTA, and the cells were collected into a centrifuge tube from a culture flask. At room temperature, 180 g of the cells were centrifuged for 3 minutes, and the cell sediment was then suspended in a DMEM culture medium. A part of the cell suspension was collected, the number of cells was counted, and the cells were then suspended in the DMEM culture medium at a cell density of 3.75×10^4 cells/mL to prepare a cell suspension. The cell suspension was inoculated at 80 μL/well in a 96-well tissue culture plate (Asahi Glass Co., Ltd.), and left for 24 hours under 37° C., 5% CO2, and 95% air conditions.
On the day when the compound was treated, 10 mM of each compound (DMSO solution) was serially diluted with DMSO to prepare a diluted solution. The diluted solution of each compound and DMSO were diluted 100-fold in a culture medium to prepare a 10-fold concentration of the treatment solution of each compound and the medium solution. The compound A solution or medium solution prepared above was added at 10 μL/well to wells of a 96-well tissue culture plate in which cells were stationary-cultured for 24 hours. Then, in the same manner, the trametinib, selumetinib, palbociclib, afatinib or erlotinib solution or the medium solution was added at 10 μL/well to wells of the 96-well tissue culture plate. […]
After the stationary culture was completed, a luminescent signal (relative luminescent unit, RLU) of each well was measured by a microplate reader using a CellTiter-Glo Luminescent Cell Viability Assay kit (Promega, G7571). An average value of RLUs of 3 wells of a medium group (a group treated with a medium solution having a compound concentration of zero (0)) was calculated, and a growth inhibition rate in each well was calculated by the following mathematical formula. […]
In order to analyze the combined effect, using a fluorescence intensity, the effective dose (ED)50, ED75, ED90 and ED95 were calculated, and a combination index (CI) described in Advances in enzyme regulation, vol. 22, 1984, pp. 27-55 was calculated for analysis. […]

Regarding `CS(=O)(=O)c1ccc(C(F)(F)F)cc1NC(=O)Nc1cnc(Oc2ccc(-c3cc(Cl)cnc3N)cc2)nc1` [1-{2-[4-(2-amino-5-chloro-3-pyridinyl)phenoxy]-5-pyrimidinyl}-3-[2-(methylsulfonyl)-5-(trifluoromethyl)phenyl]urea], in assay [1], the “growth inhibitory effect, treated alone” value was “no growth inhibitory effect was observed”.

In the case of `CN(C)C/C=C/C(=O)Nc1cc2c(Nc3ccc(F)c(Cl)c3)ncnc2cc1O[C@H]1CCOC1` [Afatinib, afatinib], the “CI (median value)” value is recorded as 0.869 in assay [2] and 0.861 in assay [3].

As to `CC(=O)c1c(C)c2cnc(Nc3ccc(N4CCNCC4)cn3)nc2n(C2CCCC2)c1=O` [Palbociclib, palbociclib], the “CI (median value)” value in assay [2] was 0.719; in assay [3] it was 0.660.

In the case of `Cn1cnc2c(F)c(Nc3ccc(Br)cc3Cl)c(C(=O)NOCCO)cc21` [Selumetinib, selumetinib], the figures for the “CI (median value)” value in assay [2] and in assay [3] were 0.549 and 0.674, respectively.

Consider `CC(=O)Nc1cccc(-n2c(=O)n(C3CC3)c(=O)c3c(Nc4ccc(I)cc4F)n(C)c(=O)c(C)c32)c1` [Trametinib, trametinib], for which the “CI (median value)” value in assay [2] stood at 0.652; in assay [3] it was 0.705.

The values are drawn from patent publication US20210000830A1, “CANCER TREATMENT METHOD USING Trk INHIBITOR AND KINASE INHIBITOR IN COMBINATION” (ONO PHARMACEUTICAL CO., LTD., priority 2017, published 2021).
